Assay results: patent US20260256763A1, “Aromatic Amide Derivative, And Preparation Method Therefor And Use Thereof” (Zhejiang Hisun Pharmaceutical Co., Ltd., priority 2023, published 2026)

Experiments:
recombinant human KIF18A = molecular target: T1, recombinant human KIF18A (Homo sapiens, UniProt Q8NI77); test: Inhibition on KIF18A enzyme activity (ADP-Glo); assay type: biochemical; conditions: recombinant human KIF18A 100 nM, ATP 60 μM
T1 construct: purchased GenScript
Procedure: Inhibition degrees of the compounds of the present invention on recombinant human KIF18A enzyme activity in vitro were determined by the following method. An ADP-Glo™ Kinase Assay kit (article number V9102) from Promega Company was used in this method. Detailed experimental operation can be referred to the instruction of the kit.
The reaction was carried out in a 384-well microplate. The test compound and the recombinant human KIF18A protein (final concentration of 100 nM, entrusted to GenScript for expression) were added into the wells and incubated at room temperature for 20 minutes, and subsequently, ATP solution (component V915A from the ADP-Glo™ Kinase Assay kit, final concentration of 60 μM) was added to the reaction solution and the obtained system was incubated at room temperature for 20 minutes. Subsequently, 5 μL of ADP-Glo Reagent was added to the reaction system and the obtained system was incubated at room temperature for 50 minutes. Then, 10 μL of Kinase Detection Reagent was added to the reaction system, and the obtained system was incubated at room temperature for 30 minutes. After the incubation was ended, a chemiluminiscence intensity value of each well was determined by a microplate reader in a Luminescence mode.

OVCAR-3 cells = test: Inhibition on OVCAR-3 cell proliferation (CellTiter-Glo); assay type: cell-based; conditions: Homo sapiens, OVCAR-3 cells (TP53 R248Q mutation), 72 hours
Procedure: (§1) Influences of the compounds of the present invention on OVCAR-3 cell proliferation were determined by the following method. OVCAR-3 cells (containing TP53 R248Q mutation) were purchased from the Cell Bank of Shanghai Institute of Biochemistry and Cell Biology, Chinese Academy of Sciences, and cultured in an RPMI 1640 culture medium containing 1000 fetal bovine serum, 100 U penicillin and 100 μg/mL streptomycin. A cell viability was determined by a CellTiter-Glo® Luminescent Cell Viability Assay kit (Promega, article number G7573).
(§2) An experimental method was operated according to steps in the instruction of the kit, which was briefly described as follows: a test compound was dissolved in DMSO first to prepare a 10 mM stock solution, then the stock solution was diluted with the above RPMI 1640 culture medium to prepare a test sample, and a final concentration of the compound was in a range of 1000 nM-0.015 nM. Cells in a logarithmic growth phase were inoculated into a 96-well cell culture plate at a density of 1000 cells per well, cultured in a 5% CO2 incubator at 37° C. overnight, and then the test compound was added to continuously culture for 72 hours. After the culture was ended, 50 μL of CellTiter-Glo detection solution was added to each well, the plates were shaken for 5 minutes, and then allowed to stand for 10 minutes, and subsequently, a luminous value of each well of sample was read by a microplate reader in a Luminescence mode. By comparing with a numerical value of a control group (0.3% DMSO), a percentage inhibition rate of the compound at each concentration was calculated, and then nonlinear regression analysis was carried out based on concentration logarithm-inhibition rate of the compound in GraphPad Prism 5 software, so as to obtain an IC50 value of the compound in inhibition on cell proliferation, which are shown in Table 1.

HT-29 cells = test: Inhibition on HT-29 cell proliferation (CellTiter-Glo); assay type: cell-based; conditions: Homo sapiens, HT-29 cells (TP53 R273H mutation), 120 hours
Procedure: as §1, with “HT-29” for “OVCAR-3”, “R273H” for “R248Q”, “a McCOY's 5A” for “an RPMI 1640”, “10%” for “1000”
as §2, with “McCOY's 5A” for “RPMI 1640”, “120” for “72”, “µL” for “μL”, “2.” for “1.”

T1 sequence (Q8NI77 whole entry): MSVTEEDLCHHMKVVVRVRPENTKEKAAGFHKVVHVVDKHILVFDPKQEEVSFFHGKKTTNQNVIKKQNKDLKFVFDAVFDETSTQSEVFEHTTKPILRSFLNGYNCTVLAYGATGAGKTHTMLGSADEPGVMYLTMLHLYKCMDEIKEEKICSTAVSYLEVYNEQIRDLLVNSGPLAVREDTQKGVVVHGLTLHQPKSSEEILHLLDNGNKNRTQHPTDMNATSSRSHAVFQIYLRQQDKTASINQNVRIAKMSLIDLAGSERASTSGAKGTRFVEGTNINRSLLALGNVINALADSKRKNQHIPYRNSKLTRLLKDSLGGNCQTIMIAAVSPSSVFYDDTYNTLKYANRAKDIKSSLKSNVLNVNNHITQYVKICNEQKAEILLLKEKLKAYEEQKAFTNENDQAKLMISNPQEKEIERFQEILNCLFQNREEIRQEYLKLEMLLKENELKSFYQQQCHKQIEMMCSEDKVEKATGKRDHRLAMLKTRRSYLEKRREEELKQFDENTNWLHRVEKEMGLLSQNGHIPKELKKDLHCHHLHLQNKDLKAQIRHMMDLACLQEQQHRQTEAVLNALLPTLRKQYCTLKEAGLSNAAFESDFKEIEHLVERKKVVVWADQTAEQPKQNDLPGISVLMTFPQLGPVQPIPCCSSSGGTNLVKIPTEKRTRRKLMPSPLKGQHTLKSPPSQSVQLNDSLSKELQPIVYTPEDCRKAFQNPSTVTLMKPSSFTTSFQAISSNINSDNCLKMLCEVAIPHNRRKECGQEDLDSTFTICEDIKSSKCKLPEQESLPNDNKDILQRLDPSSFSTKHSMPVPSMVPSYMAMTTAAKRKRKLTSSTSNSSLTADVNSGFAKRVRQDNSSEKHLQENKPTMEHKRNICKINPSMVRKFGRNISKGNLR
T1 sequence (P68363 whole entry partner): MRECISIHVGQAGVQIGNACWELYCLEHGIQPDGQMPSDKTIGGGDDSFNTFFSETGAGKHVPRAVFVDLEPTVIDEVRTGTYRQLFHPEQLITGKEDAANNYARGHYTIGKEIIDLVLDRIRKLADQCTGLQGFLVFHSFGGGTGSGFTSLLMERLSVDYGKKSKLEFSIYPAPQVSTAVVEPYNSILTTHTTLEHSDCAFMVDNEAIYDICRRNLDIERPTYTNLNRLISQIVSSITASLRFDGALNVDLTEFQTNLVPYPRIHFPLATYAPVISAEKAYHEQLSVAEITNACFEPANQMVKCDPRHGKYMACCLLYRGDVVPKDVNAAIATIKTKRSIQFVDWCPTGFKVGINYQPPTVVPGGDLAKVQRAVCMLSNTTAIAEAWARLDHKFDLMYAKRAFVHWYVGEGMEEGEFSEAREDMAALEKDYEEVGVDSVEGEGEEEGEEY
T1 sequence (Q9BVA1 whole entry partner): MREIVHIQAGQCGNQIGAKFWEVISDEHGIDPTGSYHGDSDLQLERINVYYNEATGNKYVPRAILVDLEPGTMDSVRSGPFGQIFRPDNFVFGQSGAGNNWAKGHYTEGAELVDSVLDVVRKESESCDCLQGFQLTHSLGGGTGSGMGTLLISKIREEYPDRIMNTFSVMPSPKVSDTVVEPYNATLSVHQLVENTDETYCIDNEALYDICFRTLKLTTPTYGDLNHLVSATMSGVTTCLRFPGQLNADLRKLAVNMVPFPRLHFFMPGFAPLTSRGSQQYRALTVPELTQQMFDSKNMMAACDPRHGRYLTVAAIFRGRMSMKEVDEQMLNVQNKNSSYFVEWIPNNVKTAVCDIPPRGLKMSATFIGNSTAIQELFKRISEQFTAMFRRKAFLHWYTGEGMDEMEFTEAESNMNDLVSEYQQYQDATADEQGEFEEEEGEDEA

SMILES | IC50 (recombinant human KIF18A) [nM] | IC50 (OVCAR-3 cells) [nM] | IC50 (HT-29 cells) [nM]
O=C(Nc1cc2c(c(C3(O)CCC(F)(F)CC3)c1)OCC2)c1ccc(NS(=O)(=O)C2CC2)cc1N1CCC2(CC1)CC2 [Example 12, 4-(cyclopropanesulfonamido)-N-(7-(4,4-difluoro-1-hydroxycyclohexyl)-2,3-dihydrobenzofuran-5-yl)-2-(6-azaspiro[2.5]octan-6-yl)benzamide] | 173 | – | –
CCS(=O)(=O)Nc1ccc(C(=O)Nc2cc3c(c(C4(O)CCC(F)(F)CC4)c2)OCC3)c(N2CCC3(CC2)CC3)c1 [Example 11, N-(7-(4,4-difluoro-1-hydroxycyclohexyl)-2,3-dihydrobenzofuran-5-yl)-4-(ethylsulfonamido)-2-(6-azaspiro[2.5]octan-6-yl)benzamide] | 263 | – | –
CCS(=O)(=O)Nc1ccc(C(=O)Nc2cc3c(c(N4CCC(F)(F)C4)c2)OCC3)c(N2CCC3(CC2)CC3)c1 [Example 5, N-(7-(3,3-difluoropyrrolidine-1-yl)-2,3-dihydrobenzofuran-5-yl)-4-(ethylsulfonamido)-2-(6-azaspiro[2.5]octan-6-yl)benzamide] | 134 | – | –
CCS(=O)(=O)Nc1ccc(C(=O)Nc2cc3c(c(N4CCC5(CC4)CC5)c2)OCC3)c(N2CCC3(CC2)CC3)c1 [Example 4, N-(7-(6-azaspiro[2.5]octan-6-yl)-2,3-dihydrobenzofuran-5-yl)-4-(ethylsulfonamido)-2-(6-azaspiro[2.5]octan-6-yl)benzamide] | 212 | – | –
CCS(=O)(=O)Nc1ccc(C(=O)Nc2cc3c(c(C4CC4)c2)OCC3)c(N2CCC3(CC2)CC3)c1 [Example 8, N-(7-cyclopropyl-2,3-dihydrobenzofuran-5-yl)-4-(ethylsulfonamido)-2-(6-azaspiro[2.5]octan-6-yl)benzamide] | 90.6 | – | –
CCS(=O)(=O)Nc1ccc(C(=O)Nc2cc(N3CCC(F)(F)CC3)c3cn(C)nc3c2)c(N2CCC3(CC2)CC3)c1 [Example 17, N-(4-(4,4-difluoropiperidin-1-yl)-2-methyl-2H-indazol-6-yl)-4-(ethylsulfonamido)-2-(6-azaspiro[2.5]octan-6-yl)benzamide] | 280 | 6.6 | –
O=C(Nc1cc2c(c(N3CCC(F)(F)CC3)c1)OCC2)c1ccc(NS(=O)(=O)C2CC2)cc1N1CCC2(CC1)CC2 [Example 7, 4-(cyclopropanesulfonamido)-N-(7-(4,4-difluoropyridin-1-yl)-2,3-dihydrobenzofuran-5-yl)-2-(6-azaspiro[2.5]octan-6-yl)benzamide] | 157 | 11 | 7.8
CCS(=O)(=O)Nc1ccc(C(=O)Nc2cc(N3CCC(F)(F)CC3)c3oc(C)nc3c2)c(N2CCC3(CC2)CC3)c1 [Example 22, N-(7-(4,4-difluoropiperidin-1-yl)-2-methylbenzo[d]oxazol-5-yl)-4-(ethylsulfonamido)-2-(6-azaspiro[2.5]octan-6-yl)benzamide] | 98.5 | 33.2 | –
CCS(=O)(=O)Nc1ccc(C(=O)Nc2cc(N3CCC(F)(F)CC3)c3cnn(C)c3c2)c(N2CCC3(CC2)CC3)c1 [Example 16, N-(4-(4,4-difluoropiperidin-1-yl)-1-methyl-1H-indazol-6-yl)-4-(ethylsulfonamido)-2-(6-azaspiro[2.5]octan-6-yl)benzamide] | 209 | 36.7 | 35.7
CCS(=O)(=O)Nc1ccc(C(=O)Nc2cc3c(c(N4CCOCC4)c2)C(=O)N(C)C3)c(N2CCC3(CC2)CC3)c1 [Example 27, 4-(ethylsulfonamido)-N-(2-methyl-7-morpholino-1-oxoisoindolin-5-yl)-2-(6-azaspiro[2.5]octan-6-yl)benzamide] | 109 | 1.96 | –
CCS(=O)(=O)Nc1ccc(C(=O)Nc2cc3c(c(N4CCC(F)(F)CC4)c2)OCCC3)c(N2CCC3(CC2)CC3)c1 [Example 15] | – | 18.4 | 23.6
Cn1cc2cc(NC(=O)c3ccc(NS(=O)(=O)C4CC4)cc3N3CCC4(CC3)CC4)cc(N3CCC(F)(F)CC3)c2n1 [Example 26] | 256 | – | –
CCS(=O)(=O)Nc1ccc(C(=O)Nc2cc3c(c(N4CCC(F)(F)CC4)c2)C(=O)NC3)c(N2CCC3(CC2)CC3)c1 [Example 23, N-(7-(4,4-difluoropiperidin-1-yl)-1-oxoisoindolin-5-yl)-4-(ethylsulfonamido)-2-(6-azaspiro[2.5]octan-6-yl)benzamide] | 123 | 3.6 | 5.8
CCS(=O)(=O)Nc1ccc(C(=O)Nc2cc3c(c(N4CCC(F)(F)CC4)c2)OCO3)c(N2CCC3(CC2)CC3)c1 [Example 13, N-(7-(4,4-difluoropiperidin-1-yl)benzo[d][1,3]dioxol-5-yl)-4-(ethylsulfonamido)-2-(6-azaspiro[2.5]octan-6-yl)benzamide] | 291 | 5.5 | 7.3
CCS(=O)(=O)Nc1ccc(C(=O)Nc2cc(N3CCC(F)(F)CC3)c3[nH]ncc3c2)c(N2CCC3(CC2)CC3)c1 [Example 21, N-(7-(4,4-difluoropiperidin-1-yl)-1H-indazol-5-yl)-4-(ethylsulfonamido)-2-(6-azaspiro[2.5]octan-6-yl)benzamide] | 229 | 16.6 | 13.8
CCS(=O)(=O)Nc1ccc(C(=O)Nc2cc3c(c(CC(C)C)c2)OCC3)c(N2CCC3(CC2)CC3)c1 [Example 10, 4-(ethylsulfonamido)-N-(7-isobutyl-2,3-dihydrobenzofuran-5-yl)-2-(6-azaspiro[2.5]octan-6-yl)benzamide] | 267 | – | –
CCS(=O)(=O)Nc1ccc(C(=O)Nc2cc(N3CCC(F)(F)CC3)c3cn[nH]c3c2)c(N2CCC3(CC2)CC3)c1 [Example 20, N-(4-(4,4-difluoropiperidin-1-yl)-1H-indazol-6-yl)-4-(ethylsulfonamido)-2-(6-azaspiro[2.5]octan-6-yl)benzamide] | 197 | 20.3 | –
CCS(=O)(=O)Nc1ccc(C(=O)Nc2cc3c(c(N4CC(F)(F)C4)c2)OCC3)c(N2CCC3(CC2)CC3)c1 [Example 6, N-(7-(3,3-difluoroazetidine-1-yl)-2,3-dihydrobenzofuran-5-yl)-4-(ethylsulfonamido)-2-(6-azaspiro[2.5]octan-6-yl)benzamide] | 60.9 | 9.1 | 10.7
CCS(=O)(=O)Nc1ccc(C(=O)Nc2cc3c(c(N4CCC(F)(F)CC4)c2)C(=O)N(C)C3)c(N2CCC3(CC2)CC3)c1 [Example 2, N-(7-(4,4-difluoropiperidin-1-yl)-2-methyl-1-oxoisoindolin-5-yl)-4-(ethylsulfonamido)-2-(6-azaspiro[2.5]octan-6-yl)benzamide] | 142 | 4.3 | 3.9
CCS(=O)(=O)Nc1ccc(C(=O)Nc2cc(N3CCC(F)(F)C3)c3nn(C)cc3c2)c(N2CCC3(CC2)CC3)c1 [Example 25, N-(7-(3,3-difluoropyrrolidin-1-yl)-2-methyl-2H-indazol-5-yl)-4-(ethylsulfonamido)-2-(6-azaspiro[2.5]octan-6-yl)benzamide] | 198 | 33.6 | –
